Literature values in patent US20160375041A1, “INHIBITION OF ISOPRENOID BIOSYNTHETIC PATHWAYS TO TREAT AUTOIMMUNE DISORDERS” (priority 2013, published 2016).

Test system: Vγ9Vδ2 TCR
Settings: microbial derived HMBPP; fold more potent as stimulatory pyrophosphate

For `C/C(=C\COP(=O)(O)OP(=O)(O)O)CO` [HMBPP, (E)-4-Hydroxy-3-methyl-but-2-enyl pyrophosphate], the “potency relative to any other known, naturally-occurring pyrophosphate” value is given as “over 10,000”.
